Legend:
In vivo PK study in mice = test: In vivo PK study in mice; design: species or system mouse; conditions: female BALB/c mice
Description: Female BALB/c mice were used as assay animals to determine the blood concentration of the compound and evaluate the pharmacokinetic behavior after a single administration.
Four healthy adult female BALB/c mice were selected, wherein 2 mice were in an intravenous injection group and 2 mice were in an oral group. The vehicle in the intravenous injection group was 5% DMSO+95% (20% HP-β-CD). The compound to be assayed was mixed with an appropriate amount of vehicle for intravenous injection, vortexed and sonicated to prepare a clear solution of 0.5 mg/mL. The clear solution was filtered by a microporous membrane, and then ready for use. The vehicle in the oral group was 5% DMSO+95% (20% HP-β-CD). The compound to be assayed was mixed with the vehicle, vortexed and sonicated to prepare a solution of 0.3 mg/mL. Mice were administered 1 mg/kg intravenously or 3 mg/kg orally, and then whole blood was collected for a certain period. Plasma was prepared. The drug concentration was analyzed by LC-MS/MS method, and the pharmacokinetic parameters were calculated by Phoenix WinNonlin software (Pharsight, USA).

hERG potassium channel = hERG potassium channel (Homo sapiens (Human), UniProt Q12809); test: hERG assay (automated patch-clamp, CHO-hERG cells); format: cell-based; conditions: Qpatch, highest assayed concentration 40 μM
Chain of hERG potassium channel (Q12809 whole entry): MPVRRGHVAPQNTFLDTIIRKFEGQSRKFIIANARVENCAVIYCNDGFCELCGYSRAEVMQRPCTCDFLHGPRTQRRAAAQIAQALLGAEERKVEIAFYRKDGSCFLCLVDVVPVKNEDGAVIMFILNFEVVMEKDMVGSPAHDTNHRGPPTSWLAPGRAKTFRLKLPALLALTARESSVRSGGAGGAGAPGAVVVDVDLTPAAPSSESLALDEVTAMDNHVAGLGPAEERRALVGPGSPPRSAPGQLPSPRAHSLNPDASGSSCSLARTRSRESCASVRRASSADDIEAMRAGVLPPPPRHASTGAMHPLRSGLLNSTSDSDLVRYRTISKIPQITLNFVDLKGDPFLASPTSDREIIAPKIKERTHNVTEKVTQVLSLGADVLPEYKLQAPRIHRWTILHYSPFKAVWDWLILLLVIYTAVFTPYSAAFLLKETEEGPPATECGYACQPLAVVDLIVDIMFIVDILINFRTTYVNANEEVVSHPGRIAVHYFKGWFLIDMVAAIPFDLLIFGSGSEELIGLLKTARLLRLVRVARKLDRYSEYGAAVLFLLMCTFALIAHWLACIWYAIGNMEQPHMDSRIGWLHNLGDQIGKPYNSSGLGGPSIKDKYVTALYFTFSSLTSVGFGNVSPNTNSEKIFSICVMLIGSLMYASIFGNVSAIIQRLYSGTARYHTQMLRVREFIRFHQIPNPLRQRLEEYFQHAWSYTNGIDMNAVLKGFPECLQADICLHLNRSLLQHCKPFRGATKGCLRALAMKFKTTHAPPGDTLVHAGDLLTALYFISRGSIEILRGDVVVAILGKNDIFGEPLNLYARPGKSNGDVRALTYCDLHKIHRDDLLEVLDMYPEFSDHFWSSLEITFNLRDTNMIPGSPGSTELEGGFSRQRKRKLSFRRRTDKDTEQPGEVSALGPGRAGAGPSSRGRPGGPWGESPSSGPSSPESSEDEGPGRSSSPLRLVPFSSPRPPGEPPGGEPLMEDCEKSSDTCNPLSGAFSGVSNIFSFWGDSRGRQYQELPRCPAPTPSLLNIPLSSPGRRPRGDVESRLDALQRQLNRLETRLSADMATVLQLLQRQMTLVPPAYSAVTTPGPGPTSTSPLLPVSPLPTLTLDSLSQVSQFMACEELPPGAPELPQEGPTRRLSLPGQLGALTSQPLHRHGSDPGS
Experimental: A fully automated patch-clamp method was used to assay the effect of the compound on hERG potassium channel (human Ether-a-go-go Related Gene potassium channel) current.
CHO-hERG cells were cultured in a 175 cm^2 culture flask. When cells grew to a density of 60˜80%, the culture medium was removed. Cells were washed once with 7 mL of PBS (Phosphate Buffered Saline), and then 3 mL of Detachin was added for digestion. After the digestion was completed, 7 mL of culture medium was added for neutralization, and then the mixture was centrifuged. The supernatant was aspirated, and then 5 mL of culture medium was added to resuspend the cells and ensure that the cell density was 2˜5×10^6/mL.
Extracellular solution formulation (mM): 140 NaCl, 5 KCl, 1 CaCl2), 1.25 MgCl2, 10 HEPES and 10 Glucose: the formulation was adjusted to pH of 7.4 with NaOH. […]
The single-cell high-impedance sealing and whole-cell pattern formation processes were all automatically performed by a Qpatch instrument. […] This voltage stimulation was applied every 15 seconds, and recorded for 2 minutes. The extracellular solution was then given, and recorded for 5 minutes. […]
Assay data were analyzed by GraphPad Prism 5.0 software. […]
The inhibitory effect of Cisapride with multiple concentrations on the hERG channel was measured as a positive control.

[1] = In vivo PK study in cynomolgus monkeys; design: species or system cynomolgus monkey; conditions: male cynomolgus monkeys
Experimental: Male cynomolgus monkeys were used as assay animals. After a single administration, the plasma concentration of the compound was measured and the pharmacokinetic behavior was evaluated.
Five healthy adult male cynomolgus monkeys were selected, wherein 2 animals were in an intravenous injection group, and 3 animals were in an oral group. The vehicle in the intravenous injection group was 5% DMSO+95% (20% HP-β-CD). The compound to be assayed was mixed with an appropriate amount of vehicle for intravenous injection, and dissolved with stirring to prepare a clear solution of 0.4 mg/mL. The clear solution was filtered by a microporous membrane, and then ready for use. The vehicle in the oral group was 5% DMSO+95% (20% HP-β-CD). The compound to be assayed was mixed with the vehicle, and dissolved with stirring to prepare a solution of 0.3 mg/mL. Cynomolgus monkeys were administered 1 mg/kg intravenously or 3 mg/kg orally, and then whole blood was collected for a certain period. Plasma was prepared. The drug concentration was analyzed by LC-MS/MS method, and the pharmacokinetic parameters were calculated by Phoenix WinNonlin software (Pharsight, USA).

For `Cc1cccc(CN2C(=O)c3nc(-c4nc(Nc5ccnn5C)ncc4C)sc3C23COC3)n1` [WX001], the “Oral DNAUC” value (In vivo PK study in mice; 3 mg/kg orally, AUCPO/Dose) was 2935 nM · h/mpk, the clearance (In vivo PK study in mice; mouse, plasma, intravenous, 1 mg/kg intravenously or 3 mg/kg orally) was 18.9 mL/min/kg and the Vd (In vivo PK study in mice; mouse, plasma, intravenous, 1 mg/kg intravenously or 3 mg/kg orally, read-out: Vdss) was 1.23 L/kg. It also gave a half-life (In vivo PK study in mice; mouse, plasma, 1 mg/kg intravenously or 3 mg/kg orally) of 1.1 h, a bioavailability (In vivo PK study in mice; mouse, plasma, 1 mg/kg intravenously, 3 mg/kg orally, oral bioavailability) of 154% and a Cmax (In vivo PK study in mice; mouse, single dose, 1 mg/kg intravenously or 3 mg/kg orally, plasma) of 4790 nM. It also gave an IC50 (hERG potassium channel) of over 40 µM, a clearance ([1]; cynomolgus monkey, plasma, intravenous, 1 mg/kg intravenously or 3 mg/kg orally) of 16.1 mL/min/kg and a Vd ([1]; cynomolgus monkey, plasma, intravenous, 1 mg/kg intravenously or 3 mg/kg orally, read-out: Vdss) of 1.98 L/kg. The half-life ([1]; cynomolgus monkey, plasma, 1 mg/kg intravenously or 3 mg/kg orally) was 2.41 h, the bioavailability ([1]; cynomolgus monkey, plasma, 1 mg/kg intravenously, 3 mg/kg orally, oral bioavailability) was 50% and the Cmax ([1]; cynomolgus monkey, single dose, 1 mg/kg intravenously or 3 mg/kg orally, plasma) was 921 nM. The “Oral DNAUC” value ([1]; 3 mg/kg orally, AUCPO/Dose) was 1152.35 nM · h/mpk.

From US20240309018A1, “THIAZOLE-LACTAM-SPIROHETEROCYCLIC COMPOUNDS AND APPLICATIONS THEREOF” (D3 BIO (WUXI) CO., LTD, priority 2021, published 2024)
